Experimental data as given in US6368788B1 (priority 1987, dated 2002).
Marks after values point to notes of the source that are not given here.

Legend:
Transfusion reactions = experiment: Transfusion reactions; design: species or system human; details: in vivo
Description: Seventy-six patients (76) requiring hemotransfusion therapy with allogeneic blood were treated with L-Glu-L-Trp in the post-operative period, starting at day 4-6 post-op. Seventy-two patients (72) in a control group received conventional post-operative treatment. L-Glu-L-Trp treatment was administered as a single daily im dose of 100 μg on each of 5 consecutive days, or alternatively, at a dose of 1 μg/kg delivered on the same schedule by the intranasal route.

[1] = Chronic liver disease: jaundice and systemic toxicity; design: species or system human; details: in vivo
[2] = test system: peripheral blood leukocytes; experiment: Peripheral blood leukocytes in cortisone suppressed rats; assay type: in vivo; details: for Basophils (% of Normal Control Value) / Basophils: % / Basophils: Total Cells / Eosinophils (% of Normal Control Value) / Eosinophils: % / Eosinophils: Total Cells / Leukocytes (% of Normal Control Value) / Leukocytes: Total Cells / Lymphocytes (% of Normal Control Value) / Lymphocytes: % / Lymphocytes: Total Cells / Monocytes (% of Normal Control Value) / Monocytes: % / Monocytes: Total Cells / Segmented Neutrophils (% of Normal Control Value) / Segmented Neutrophils: % / Segmented Neutrophils: Total Cells / Stab Neutrophils (% of Normal Control Value) / Stab Neutrophils: % / Stab Neutrophils: Total Cells: cortisone suppressed rats, 10 μg/kg im
Description: An immunocompromised state was established over a period of 80 days in experimental rats by administration of cortisone acetate at a dosage of 25 mg/kg twice weekly with tetracycline hydrocholoride po in drinking water. In the experimental group, L-Glu-L-Trp was administered in three treatment courses, each course consisting of 10 daily im injections of 10 μg/kg or 100 μg/kg, and each course of treatment separated from the next course by a 1 month interval. In the control group, saline was administered in the same three treatment course schedule. Differential blood counts were conducted on day 0 (Normal Control), day 59, and day 79 of the study. […] Results obtained with the 10 μg/kg treatment dose (presented in TABLE 73) were not markedly different than those obtained with the 100 μg/kg dose.

Sarcoma 180 tumor = experiment: Sarcoma 180 bilateral tumor size; assay type: in vivo, Swiss-Webster mice; details: for Mean Tumor Weight Left / Mean Tumor Weight Right: mean leg weight treated - normal control
Description: Anti-tumor activity of L-Glu-L-Trp was evaluated using the murine Sarcoma 180 tumor (ATCC CCL-8 CCRF S-180 II) injected at 2×10^6 cells/0.1 mL im into each rear flank of Swiss-Webster mice. Groups consisted of 10 animals. L-Glu-L-Trp was administered in a single 0.1 mL dose of either 10 μg/kg, 75 μg/kg, 250 μg/kg or 1000 μg/kg. Tumor size was evaluated by surgically removing and weighing the affected limbs, and comparing the weight with the weight of normal control (non-tumor) limbs. The first prophylactic drug regimen (PDR-1) consisted of 5 consecutive daily ip injections commencing on day -5 and ending of day -1. The second prophylactic drug regimen (PDR-2) consisted of 5 consecutive daily im injections to the left rear flank (tumor site) beginning on day -5 and ending on day -1. Sarcoma 180 cells were injected im on day 0. Saline 0.1 mL served as the negative control.

[3] = test system: peripheral blood leukocytes
Description: Twenty-eight patients (15) having the same disease profile and under conventional treatment formed a control group.
The patients presented with the following diagnosed odontogenic infections: 18 with limited purulent infection(s), 7 with focal infection(s), 3 with diffuse infection(s). In addition, 3 patients presented with destructive osteomyelitis and 15 with plegmons mandible.
All 15 children in the conventional treatment group were evaluated before therapy. Post-treatment measurements were performed with peripheral blood samples that were collected from all the conventional and L-Glu-L-Trp treated children. Fifteen healthy normal children were also evaluated to determine the normal mean values in the respective assays (Normal Healthy Control).

Staphylococcus aureus = experiment: Survival after acute peritonitis with LD100 dose of antibiotic-resistant Staphylococcus aureus, prophylactic treatment; details: for Percentage Survivors: ip prophylactic
[4] = children, periapical granulomas, L-Glu-L-Trp Combination, After Therapy

## L-Glu-L-Trp
Transfusion reactions
  Clinical outcome: None of L-Glu-L-Trp treated patients showed clinical manifestations of allogeneic hemotransfusion reactions
[1]
  Seropositive patients with a positive response to therapy: 21 of the 29
  Seropositive patients with no detectable change: 8
[2]; 10 μg/kg and 100 μg/kg
  Peripheral blood cells vs saline treated controls: increased the number of leukocytes, monocytes, and lymphocytes in the peripheral blood of cortisone-suppressed rats
[2]; Day 59
  Basophils (% of Normal Control Value): (71%)
  Basophils: %: 0.4 ± 0.2%
  Basophils: Total Cells: 0.05 ± 0.03 × 10^3/mg
  Eosinophils (% of Normal Control Value): (150%)
  Eosinophils: %: 4.3 ± 0.4 %
  Eosinophils: Total Cells: 0.6 ± 0.1 × 10^9/L
  Leukocytes (% of Normal Control Value): (75%)
  Leukocytes: Total Cells: 12.4 ± 1.8 × 10^9/L
  Lymphocytes (% of Normal Control Value): (11%)
  Lymphocytes: %: 57 ± 1.5 %
  Lymphocytes: Total Cells: 7 ± 1 × 10^9/L
  Monocytes (% of Normal Control Value): (128%)
  Monocytes: %: 7 ± 0.9 %
  Monocytes: Total Cells: 0.92 ± 0.2 × 10^9/L
  Segmented Neutrophils (% of Normal Control Value): (73%)
  Segmented Neutrophils: %: 26.7 ± 1 %
  Segmented Neutrophils: Total Cells: 3.3 ± 0.4 × 10^9/L
  Stab Neutrophils (% of Normal Control Value): (100%)
  Stab Neutrophils: %: 4.7 ± 0.6%
  Stab Neutrophils: Total Cells: 0.6 ± 0.1 × 10^9/L
[2]; Day 79
  Basophils (% of Normal Control Value): (29%)
  Basophils: %: 0.3 ± 0.2%
  Basophils: Total Cells: 0.02 ± 0.02 × 10^3/mg
  Eosinophils (% of Normal Control Value): (75%)
  Eosinophils: %: 4 ± 0.9%
  Eosinophils: Total Cells: 0.3 ± 0.1 × 10^9/L
  Leukocytes (% of Normal Control Value): (49%)
  Leukocytes: Total Cells: 8.06 ± 0.9 × 10^9/L
  Lymphocytes (% of Normal Control Value): (7.7%)
  Lymphocytes: %: 59 ± 2 %
  Lymphocytes: Total Cells: 4.7 ± 1 × 10^9/L
  Monocytes (% of Normal Control Value): (100%)
  Monocytes: %: 8 ± 0.8 %
  Monocytes: Total Cells: 0.7 ± 0.1 × 10^9/L
  Segmented Neutrophils (% of Normal Control Value): (44%)
  Segmented Neutrophils: %: 24.6 ± 1.3 %
  Segmented Neutrophils: Total Cells: 2 ± 2 × 10^9/L
  Stab Neutrophils (% of Normal Control Value): (58%)
  Stab Neutrophils: %: 4.4 ± 0.7 %
  Stab Neutrophils: Total Cells: 0.35 ± 0.1 × 10^9/L
Sarcoma 180 tumor; PDR-1 ip, 10 μg/kg
  Percent of Control Tumor Weight Left: 120%
  Mean Tumor Weight Left: 3.0
  Mean Tumor Weight Right: 2.9
Sarcoma 180 tumor; PDR-1 ip, 75 μg/kg
  Percent of Control Tumor Weight Left: 120%
  Mean Tumor Weight Left: 3.0
  Percent of Control Tumor Weight Right: 130%
  Mean Tumor Weight Right: 3.0
Sarcoma 180 tumor; PDR-1 ip, 250 μg/kg
  Percent of Control Tumor Weight Left: 92%
  Mean Tumor Weight Left: 2.3
  Percent of Control Tumor Weight Right: 83%
  Mean Tumor Weight Right: 1.9
Sarcoma 180 tumor; PDR-1 ip, 1000 μg/kg
  Percent of Control Tumor Weight Left: 52%
  Mean Tumor Weight Left: 1.3
  Percent of Control Tumor Weight Right: 43%
  Mean Tumor Weight Right: 1.0
Sarcoma 180 tumor; PDR-2 im, 10 μg/kg
  Percent of Control Tumor Weight Left: 96%
  Mean Tumor Weight Left: 2.4
  Mean Tumor Weight Right: 2.6
Sarcoma 180 tumor; PDR-2 im, 75 μg/kg
  Percent of Control Tumor Weight Left: 96%
  Mean Tumor Weight Left: 2.4
  Percent of Control Tumor Weight Right: 132%
  Mean Tumor Weight Right: 3.3
Sarcoma 180 tumor; PDR-2 im, 250 μg/kg
  Percent of Control Tumor Weight Left: 72%
  Mean Tumor Weight Left: 1.8
  Percent of Control Tumor Weight Right: 48%
  Mean Tumor Weight Right: 1.1
Sarcoma 180 tumor; PDR-2 im, 1000 μg/kg
  Percent of Control Tumor Weight Left: 48%
  Mean Tumor Weight Left: 1.2
  Percent of Control Tumor Weight Right: 57%
  Mean Tumor Weight Right: 1.3
Sarcoma 180 tumor; prophylactic ip or im, 250 μg/kg and 1000 μg/kg
  Tumor growth: inhibited subsequent im tumor growth
[3]; [4]
  B-Lymphocytes % of Normal Value: (108%)
  B-Lymphocytes: No.: 0.67 ± 0.05 10^9/L
  IgA: 1.09 ± 0.04 g/L
  IgA % Normal Value: (104%)
  IgG: 10.78 ± 0.83 g/L
  IgG % Normal Value: (117%)
  IgM: 0.93 ± 0.07 g/L
  IgM % Normal Value: (95%)
  LMIR Response: % w/PHA: 14.65 ± 3.11 %
  Leukocytes % Normal Value: (97%)
  Leukocytes: No.: 6.60 ± 0.39* 10^9/L
  Lymphocytes % Normal Value: (36%)
  Lymphocytes: No.: 2.37 ± 0.21 10^9/L
  T-Lymphocytes % of Normal Value: (98%)
  T-Lymphocytes: No.: 1.24 ± 0.11* 10^9/L
[3]; following combination therapy
  T-lymphocyte counts, % of normal levels: 98%
Staphylococcus aureus; 24 hours before challenge
  Survival by time of single prophylactic ip injection: more surviving animals than if pretreatment was at 1, 48, or 72 hrs
Staphylococcus aureus; 24 hours, Glu-Trp dose 0.01 μg/kg (alone or + Ampicillin)
  Percentage Survivors: 31.5%
Staphylococcus aureus; 24 hours, Glu-Trp dose 0.1 μg/kg (alone or + Ampicillin)
  Percentage Survivors: 33.3%
Staphylococcus aureus; 24 hours, Glu-Trp dose 1 μg/kg (alone or + Ampicillin)
  Percentage Survivors: 50.0* %
Staphylococcus aureus; 24 hours, Glu-Trp dose 10 μg/kg (alone or + Ampicillin)
  Percentage Survivors: 83.3* %
Staphylococcus aureus; 24 hours, Glu-Trp dose 100 μg/kg (alone or + Ampicillin)
  Percentage Survivors: 88.9* %
Staphylococcus aureus; 24 hours, dose cell empty (line after 100 μg/kg)
  Percentage Survivors: 83.3* %
Staphylococcus aureus; 48 hours, Glu-Trp dose 0.01 μg/kg (alone or + Ampicillin)
  Percentage Survivors: 3.7%
Staphylococcus aureus; 48 hours, Glu-Trp dose 0.1 μg/kg (alone or + Ampicillin)
  Percentage Survivors: 0%
Staphylococcus aureus; 48 hours, Glu-Trp dose 1 μg/kg (alone or + Ampicillin)
  Percentage Survivors: 27.8* %
Staphylococcus aureus; 48 hours, Glu-Trp dose 10 μg/kg (alone or + Ampicillin)
  Percentage Survivors: 50.0* %
Staphylococcus aureus; 48 hours, Glu-Trp dose 100 μg/kg (alone or + Ampicillin)
  Percentage Survivors: 61.1* %
Staphylococcus aureus; 48 hours, dose cell empty (line after 100 μg/kg)
  Percentage Survivors: 72.2* %
Staphylococcus aureus; 72 hours, Glu-Trp dose 0.01 μg/kg (alone or + Ampicillin)
  Percentage Survivors: 0%
Staphylococcus aureus; 72 hours, Glu-Trp dose 0.1 μg/kg (alone or + Ampicillin)
  Percentage Survivors: 0%
Staphylococcus aureus; 72 hours, Glu-Trp dose 1 μg/kg (alone or + Ampicillin)
  Percentage Survivors: 5.6%
Staphylococcus aureus; 72 hours, Glu-Trp dose 10 μg/kg (alone or + Ampicillin)
  Percentage Survivors: 33.3* %
Staphylococcus aureus; 72 hours, Glu-Trp dose 100 μg/kg (alone or + Ampicillin)
  Percentage Survivors: 50.0* %
Staphylococcus aureus; 72 hours, dose cell empty (line after 100 μg/kg)
  Percentage Survivors: 55.6* %
Staphylococcus aureus; ip or im routes
  Survival: increased the percentage of animals surviving challenge with a lethal number of Staphylococcus aureus
Staphylococcus aureus; single agent or combined therapy
  Survival, multiple treatment regimen at 72, 48 and 24 hrs: significantly higher (p<0.05) survival than a single treatment dose
